pIC50: −log10 of the molar value. Where a name gives a salt, the structure may show the parent alone. Activity calls are given as the source filed them. The calls are words filed in the database; no cut-off is given here.
Key:
A549 = assay: Cytotoxicity against human A549 cells assessed as decrease in cell viability by MTT assay; format: functional, cell-based
HeLa = assay: Cytotoxicity against human HeLa cells assessed as decrease in cell viability by MTT assay; format: functional, cell-based
HepG2 = assay: Cytotoxicity against human HepG2 cells assessed as decrease in cell viability by MTT assay; format: functional, cell-based
Escherichia coli = assay: Antibacterial activity against Escherichia coli ATCC 25922 at 20 uM; format: functional, organism-based
Staphylococcus aureus [1] = assay: Antibacterial activity against Staphylococcus aureus ATCC 25923 at 20 uM; format: functional, organism-based
Staphylococcus aureus [2] = assay: Antibacterial activity against methicillin-resistant Staphylococcus aureus ATCC 33591 at 20 uM; format: functional, organism-based
Bacillus cereus = assay: Antibacterial activity against Bacillus cereus ATCC 11778 at 20 uM; format: functional, organism-based
Vibrio parahaemolyticus = assay: Antibacterial activity against Vibrio parahaemolyticus ATCC 17802 at 20 uM; format: functional, organism-based
Vibrio alginolyticus = assay: Antibacterial activity against Vibrio alginolyticus ATCC 17749 at 20 uM; format: functional, organism-based

SMILES | pIC50 (A549) | pIC50 (HeLa) | pIC50 (HepG2) | Activity (Escherichia coli) | Activity (Staphylococcus aureus [1]) | Activity (Staphylococcus aureus [2]) | Activity (Bacillus cereus) | Activity (Vibrio parahaemolyticus) | Activity (Vibrio alginolyticus)
O=c1[nH]cc(F)c(=O)[nH]1 [FLUOROURACIL] | 4.43 | 4.55 | – | – | – | – | – | – | –
COc1cccc2c1C(=O)c1c(O)c3c(c(O)c1C2=O)C[C@@](O)(C(=O)CO)C[C@@H]3O[C@H]1C[C@H](N)[C@H](O)[C@H](C)O1 [DOXORUBICIN HYDROCHLORIDE] | – | 7.00 | – | – | – | – | – | – | –
CC(C)=CCC[C@@]12[C@@H](O)CC[C@@H](C)[C@]1(C)CC[C@@](C)(O)[C@H]2Cc1c[nH]c2ccccc12 | 5.26 | 4.63 | 5.82 | inactive | inactive | inactive | inactive | inactive | inactive
CC(C)=CCC[C@@]12C(=O)CC[C@@H](C)[C@]1(C)CC[C@@](C)(O)[C@H]2Cc1c[nH]c2ccccc12 | 4.73 | 4.70 | 4.33 | inactive | inactive | inactive | inactive | inactive | inactive

Reference: ChEMBL document CHEMBL4251672, “Penicilindoles A-C, Cytotoxic Indole Diterpenes from the Mangrove-Derived Fungus Eupenicillium sp. HJ002” (J Nat Prod, 2018)
